Data from PubChem BioAssay AID328 (DTP/NCI, 2004).
Values joined by “and” are separate entries in the source; they are usually repeats but may differ in a detail not shown here. Identical values can stand only once. Inconclusive results and toxic doses are left out. Residues, ends and D or L forms follow the SMILES beside them. *: point of attachment. Cbz = O=C(OCc1ccccc1)*; OBn = c1ccc(CO*)cc1; Bn = c1ccc(C*)cc1

System: BDF1 mice, P388 leukemia ip, median survival T/C
Experiment: NCI In Vivo Anticancer Drug Screen. Data for tumor model P388 Leukemia (intraperitoneal) in B6D2F1 (BDF1) mice
Conditions: endpoint: median survival time, higher = longer survival
Method in brief: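 Transplantable tumour in mice; compound vs vehicle dosing; survival scored; ratio of treated to control reported.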

[1] = dose: 100.0 mg/kg/injection, schedule: Q01DX009 (ip), vehicle: saline
[2] = dose: 200.0 mg/kg/injection, schedule: Q01DX009 (ip), vehicle: saline
[3] = dose: 400.0 mg/kg/injection, schedule: Q01DX009 (ip), vehicle: saline
[4] = dose: 25.0 mg/kg/injection, schedule: Q01DX009 (ip), vehicle: saline with Tween-80
[5] = dose: 25.0 mg/kg/injection, schedule: Q04DX003 (ip), vehicle: saline with Tween-80
[6] = dose: 50.0 mg/kg/injection, schedule: Q04DX003 (ip), vehicle: saline with Tween-80
[7] = dose: 50.0 mg/kg/injection, schedule: Q01DX009 (ip), vehicle: saline with Tween-80
[8] = dose: 100.0 mg/kg/injection, schedule: Q01DX009 (ip), vehicle: saline with Tween-80
[9] = dose: 200.0 mg/kg/injection, schedule: Q01DX009 (ip), vehicle: saline with Tween-80
[10] = dose: 50.0 mg/kg/injection, schedule: Q04DX003 (ip), vehicle: saline
[11] = dose: 100.0 mg/kg/injection, schedule: Q04DX003 (ip), vehicle: saline
[12] = dose: 200.0 mg/kg/injection, schedule: Q04DX003 (ip), vehicle: saline
[13] = dose: 100.0 mg/kg/injection, schedule: Q04DX003 (ip), vehicle: saline with Tween-80
[14] = dose: 12.5 mg/kg/injection, schedule: Q01DX009 (ip), vehicle: saline
[15] = dose: 25.0 mg/kg/injection, schedule: Q01DX009 (ip), vehicle: saline
[16] = dose: 400.0 mg/kg/injection, schedule: Q01DX009 (ip), vehicle: saline with Tween-80
[17] = dose: 50.0 mg/kg/injection, schedule: Q01DX009 (ip), vehicle: saline

In the case of `CCCCC(C#N)(C(=O)OCC)C(C)(C)C` (centres undefined), the T/C [1] is reported as 109 % of control, the T/C [2] is reported as 118 % of control and the T/C [3] is reported as 90 % of control.

For `C[N+](C)(Cc1ccccc1)CC(O)COc1ccccc1` (centres undefined), the T/C (dose: 12.5 mg/kg/injection, schedule: Q01DX009 (ip), vehicle: saline with Tween-80) was 96 % of control, the T/C (dose: 12.5 mg/kg/injection, schedule: Q04DX003 (ip), vehicle: saline with Tween-80) was 118 % of control and the T/C [4] was 103 % of control. The T/C [5] was 113 % of control and the T/C [6] was 104 % of control.

`O=C(N=Nc1c(O)[nH]c2c(Cl)cc(Cl)cc12)c1ccccc1O` was tested, and the T/C [7] was 90 % of control, the T/C [8] was 87 % of control and the T/C [9] was 96 % of control.

In the case of `Nc1nc(=O)n(C2OC(CO)C(O)C2O)c2nc(I)[nH]c12` (centres undefined), the T/C (dose: 12.5 mg/kg/injection, schedule: Q04DX003 (ip), vehicle: saline) is reported as 97 % of control, the T/C (dose: 25.0 mg/kg/injection, schedule: Q04DX003 (ip), vehicle: saline) is reported as 97 % of control and the T/C [10] is reported as 105 % of control. For the same compound, the T/C [11] was 108 % of control and the T/C [12] was 111 % of control.

In the case of `CC(C)CC(NC(=O)C(CSCc1ccccc1)NC(=O)OCc1ccccc1)C(=O)OCc1ccccc1` (centres undefined) (Cbz-Cys(Bn)-Leu-OBn; configuration not given here), the T/C (dose: 100.0 mg/kg/injection, schedule: Q04DX003 (ip), vehicle: gum acacia) is reported as 104 % of control, the T/C (dose: 200.0 mg/kg/injection, schedule: Q04DX003 (ip), vehicle: gum acacia) is reported as 100 % of control and the T/C (dose: 400.0 mg/kg/injection, schedule: Q04DX003 (ip), vehicle: gum acacia) is reported as 100 % of control.

With `CCCCN(C)N=Nc1c(C(N)=O)n[nH]c1C` the T/C (dose: 22.0 mg/kg/injection, schedule: Q01DX009 (ip), vehicle: saline with Tween-80) was 122 % of control, the T/C [4] was 120 % of control and the T/C [7] was 154 % of control. For the same compound, the T/C (dose: 88.0 mg/kg/injection, schedule: Q04DX003 (ip), vehicle: Klucel (hydroxypropylcellulose) (HPC)) was 109 % of control.

With `CCOC(=O)c1ccccc1OP(=O)(N(C)C)N(C)C` the T/C [7] was 106 % of control and the T/C [9] was 122 % of control.

`C#CC(C)(C)OCC(CCl)OC(N)=O` (centres undefined) was tested, and the T/C [6] was 105 % of control, the T/C [13] was 110 % of control and the T/C (dose: 200.0 mg/kg/injection, schedule: Q04DX003 (ip), vehicle: saline with Tween-80) was 100 % of control. The T/C (dose: 400.0 mg/kg/injection, schedule: Q04DX003 (ip), vehicle: saline with Tween-80) was 115 % of control.

For `CCCCN(CCCC)CCC(=O)c1ccc(OC)c2ccccc12`, the T/C [7] was 86 % of control.

In the case of `Clc1cccc(N2CN(c3cccc(Cl)c3)CN(c3cccc(Cl)c3)C2)c1`, the T/C (dose: 100.0 mg/kg/injection, schedule: Q01DX001 (ip), vehicle: saline with Tween-80) is reported as 90 % of control, the T/C (dose: 200.0 mg/kg/injection, schedule: Q01DX001 (ip), vehicle: saline with Tween-80) is reported as 87 % of control and the T/C (dose: 400.0 mg/kg/injection, schedule: Q01DX001 (ip), vehicle: saline with Tween-80) is reported as 91 % of control.

In the case of `O=C1NC(c2ccccc2)(c2ccccc2)C(=O)N1CCN(CCCl)CCCl`, the T/C (dose: 6.1 mg/kg/injection, schedule: Q04DX003 (ip), vehicle: saline with Tween-80) is reported as 100 % of control, the T/C (dose: 14.0 mg/kg/injection, schedule: Q04DX003 (ip), vehicle: saline) is reported as 150 % of control and the T/C (dose: 21.0 mg/kg/injection, schedule: Q04DX003 (ip), vehicle: saline) is reported as 190 % of control. For the same compound, the T/C (dose: 33.0 mg/kg/injection, schedule: Q04DX003 (ip), vehicle: saline with Tween-80) was 154 % of control and 168 % of control and the T/C [6] was 181 % of control and 200 % of control.

For `CN[C@@H]1[C@H](O)[C@H](NC)[C@H]2O[C@@]3(O)C(=O)C[C@@H](C)O[C@H]3O[C@@H]2[C@H]1O`, the T/C (dose: 6.25 mg/kg/injection, schedule: Q01DX009 (ip), vehicle: saline) was 95 % of control, the T/C [14] was 90 % of control and the T/C [1] was 99 % of control. The T/C [2] was 117 % of control and the T/C [3] was 115 % of control.

For `CC(C#N)(C#N)N=Nc1ccc(Cl)cc1Cl`, the T/C [8] was 116 % of control.

With `CS(=O)(=O)OCCCCCOS(C)(=O)=O` the T/C [14] was 95 % of control, the T/C [15] was 100 % of control and the T/C [10] was 113 % of control.

In the case of `C=C(C)c1ccc(C)c(C)c1`, the T/C [8] is reported as 106 % of control and the T/C [16] is reported as 122 % of control.

For `CSc1cc(C)c(O)c(CO)c1`, the T/C (dose: 100.0 mg/kg/injection, schedule: Q01DX009 (ip), vehicle: other) was 100 % of control, the T/C (dose: 200.0 mg/kg/injection, schedule: Q01DX009 (ip), vehicle: other) was 95 % of control and the T/C (dose: 400.0 mg/kg/injection, schedule: Q01DX009 (ip), vehicle: other) was 95 % of control.

With `CCC(CC)c1ccccn1` the T/C [17] was 104 % of control, the T/C (dose: 100.0 mg/kg/injection, schedule: Q01DX009 (ip), vehicle: carboxymethylcellulose (CMC)) was 99 % of control and the T/C [1] was 105 % of control. The T/C (dose: 200.0 mg/kg/injection, schedule: Q01DX009 (ip), vehicle: carboxymethylcellulose (CMC)) was 108 % of control and the T/C [2] was 113 % of control.

For `CS(=O)(=O)NN`, the T/C [14] was 95 % of control, the T/C [15] was 95 % of control and the T/C (dose: 37.5 mg/kg/injection, schedule: Q04DX003 (ip), vehicle: saline) was 100 % of control. For the same compound, the T/C [17] was 90 % of control and the T/C (dose: 75.0 mg/kg/injection, schedule: Q04DX003 (ip), vehicle: saline) was 90 % of control.

With `O=C(O)c1ccc(C2CC2)cc1` the T/C [8] was 95 % of control, the T/C [9] was 90 % of control and the T/C [16] was 90 % of control.

In the case of `CCOCCc1ccncc1`, the T/C [10] is reported as 112 % of control, the T/C [11] is reported as 108 % of control and the T/C [12] is reported as 100 % of control.

In the case of `COc1ccc(/C=N/NC(=O)C[n+]2ccccc2)c(OC)c1`, the T/C [4] is reported as 104 % of control, the T/C [5] is reported as 118 % of control and the T/C [7] is reported as 109 % of control. The T/C [6] was 104 % of control, the T/C [8] was 100 % of control and the T/C [13] was 104 % of control.

`O=C(/C=C/c1ccc(Cl)cc1)NCC(O)CO` (centres undefined) was tested, and the T/C (dose: 400.0 mg/kg/injection, schedule: Q01DX009 (ip), vehicle: water) was 91 % of control.

In the case of `O=C1OC(Cc2ccccc2)(c2ccccc2)c2ccccc21` (centres undefined), the T/C [7] is reported as 90 % of control and the T/C [8] is reported as 90 % of control.

For `O=C1C(Cl)=C(N2CC2)C(=O)C(Cl)=C1N1CC1`, the T/C (dose: 1.25 mg/kg/injection, schedule: Q01DX009 (ip), vehicle: saline with Tween-80) was 172 % of control, the T/C (dose: 2.5 mg/kg/injection, schedule: Q01DX009 (ip), vehicle: Klucel (hydroxypropylcellulose) (HPC)) was 150 % of control and the T/C (dose: 2.5 mg/kg/injection, schedule: Q01DX009 (ip), vehicle: saline with Tween-80) was 169 % of control. The T/C (dose: 5.0 mg/kg/injection, schedule: Q01DX009 (ip), vehicle: Klucel (hydroxypropylcellulose) (HPC)) was 157 % of control and 165 % of control, the T/C (dose: 5.0 mg/kg/injection, schedule: Q01DX009 (ip), vehicle: saline with Tween-80) was 172 % of control and the T/C (dose: 5.0 mg/kg/injection, schedule: Q01DX009 (ip), vehicle: saline) was 155 % of control and 165 % of control. For the same compound, the T/C (dose: 10.0 mg/kg/injection, schedule: Q01DX009 (ip), vehicle: Klucel (hydroxypropylcellulose) (HPC)) was 123 % of control, the T/C (dose: 10.0 mg/kg/injection, schedule: Q01DX009 (ip), vehicle: saline with Tween-80) was 169 % of control and the T/C (dose: 10.0 mg/kg/injection, schedule: Q01DX009 (ip), vehicle: saline) was 163 % of control and 200 % of control.

With `O=[N+]([O-])c1ccccc1CN1c2ccccc2N=C2c3ccccc3CC21` (centres undefined) the T/C (dose: 100.0 mg/kg/injection, schedule: Q04DX003 (ip), vehicle: saline sonified) was 116 % of control, the T/C (dose: 200.0 mg/kg/injection, schedule: Q04DX003 (ip), vehicle: saline sonified) was 100 % of control and the T/C (dose: 400.0 mg/kg/injection, schedule: Q04DX003 (ip), vehicle: saline sonified) was 91 % of control.
